# Where “and” joins values, the source holds several entries; their conditions need not be identical. Equal values may be shown once. Read-outs that look alike come from different tables or passages of the source.
# How the values were obtained:
# MCF7 cells [1] = test: LC-MS/MS cellular levels of exogenously added compounds in MCF7 cells; format: cell-based, human; conditions: for cellular accumulation: MCF7 cells (Example 6); for cellular level of the analog, time course / cellular uptake, early level / cellular level of the analog, concentration dependent: MCF7 cells; for cellular level of the analog, time course / cellular uptake, early level: 10 μM; for cellular level of the analog, time course: up to 24 h; for cellular uptake, early level: up to ~1 h; for cellular level of the analog, concentration dependent: 24 h
# Procedure: (§1) MCF7 cells (breast adenocarcinoma, pleural effusion) were purchased from American type Culture Collection (ATCC, Rockville, Md., USA) and grown in RPMI 1640 media (Life Technologies, Inc) supplemented with 10% fetal calf serum (FCS, Summit Biotechnology, CO, USA) and maintained under standard incubator conditions (humidified atmosphere 95% air, 5% CO2, 37° C.). A parallel set of cells was used to determine cell proliferation and to prepare lipid extracts for MS analysis.
# (§2) Advanced analyses were performed on a Thermo Finnigan TSQ 7000, triple-stage quadrupole mass spectrometer operating in a Multiple Reaction Monitoring (MRM) positive ionization mode as described (J. Bielawski, et al., Methods 39 (2006), p. 82; J. Bielawski, et al., Methods Mol. Biol. 579 (2009), p. 443). Quantitative analysis of the cellular level of 2′-OH—C6-Cers/dhCers and C6-Cer/dhCer was based on the calibration curves generated by spiking an artificial matrix with known amounts of target standards and an equal amount of the internal standard (IS). The target analyte to IS peak area ratios from the samples were similarly normalized to their respective IS and compared to the calibration curves using a linear regression model. Final results were expressed as the level of the particular SPLs/phospholipids (Pi) determined from the Bligh & Dyer lipid extract and expressed as SPLs/Pi (pmol/nmol).
# HL60 leukemia cells = conditions: previously reported; cited from earlier work
# [2] = tested on: endogenous SPLs in MCF7 cells; test: LC-MS/MS analysis of endogenous SPLs in treated MCF7 cells; format: cell-based, human; conditions: for elevation of cellular dhCer: 40 μM treatment
# Procedure: as §1, §2
# dhCer desaturase = molecular target: T1, dhCer desaturase (Homo sapiens, UniProt O15121); test: Conversion of C6-dhCer analogs to their unsaturated analogs in MCF7 cells; format: cell-based; conditions: 24 h treatment
# T1 construct: endogenous in cells; host or cells: MCF7
# T1 sequence (O15121 1-323): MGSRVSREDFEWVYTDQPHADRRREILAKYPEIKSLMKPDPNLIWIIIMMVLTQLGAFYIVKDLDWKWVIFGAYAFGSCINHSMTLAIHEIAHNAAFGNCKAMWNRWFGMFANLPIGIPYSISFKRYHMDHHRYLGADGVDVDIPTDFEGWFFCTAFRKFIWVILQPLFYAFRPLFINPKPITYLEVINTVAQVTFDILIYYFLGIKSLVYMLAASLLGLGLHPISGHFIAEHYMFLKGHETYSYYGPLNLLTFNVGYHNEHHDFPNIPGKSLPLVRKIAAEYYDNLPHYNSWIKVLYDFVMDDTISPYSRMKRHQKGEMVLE
# Procedure: as §2
# MCF7 cells [3] = test: Cell proliferation of MCF7 cells (cell counts, Trypan blue, 24 h); format: cell-based, human; conditions: for IC50: read-out: IC50, MCF7 cell growth inhibition
# Procedure: as §1
# MCF7 cells were seeded at a density of ˜50% (corresponding to 1×10^6 cells) in 10 ml of 10% FCS and, after an overnight incubation, were treated with the compounds at (0-50 μM) in ethanol (<0.1%) and the changes in cell numbers after 24 h were determined and expressed as a percentage of the untreated controls. Briefly, media were removed, cells were washed twice with PBS, detached using 1% Trypsin and centrifuged at 800 rpm. Cell pellets were resuspended in PBS and Trypan blue (Sigma Chemicals, St. Louis, Mo., USA) was added (1:1 dilution). Under a light microscope, the percentage of unstained and stained cells was assessed.
# [4] = 10 μM, time-dependent experiment, data not shown
smiles,measurement,setting,value
"CCCCCCCCCCCCC/C=C/[C@@H](O)[C@H](CO)NC(=O)[C@H](O)CCCC [LCL366, (2S,3R,2′R,4E)-2′-Hydroxy-C6-ceramide]",cellular accumulation,MCF7 cells [1],low cellular accumulation
same,"cellular level of the analog, time course",MCF7 cells [1],progressively decreased to the lowest level among all tested analogs at 24 h
same,"cellular uptake, early level",MCF7 cells [1],highest levels
same,"cellular level of the analog, concentration dependent",MCF7 cells [1],lowest level
CCCCCCCCCCCCC/C=C/[C@@H](O)[C@H](CO)NC(=O)[C@H](C)O [(2′S)-2′-OH—C3-Cer],potency relative to the other isomer,HL60 leukemia cells,much more potent then its (2′R)-isomer
CCCCCCCCCCCCCCC[C@@H](O)[C@H](CO)NC(=O)CCCCC [C6-dhCer],"cellular level of the analog, time course",MCF7 cells [1],"followed the curve of C6-Cer, however at a lower rate"
same,"effect on Cer species, time dependent",[2]; 10 μM,elevated all Cer species
same,"effect on cellular Sph, time dependent",[2]; 10 μM,slightly increased
same,"cellular Cers level, time dependent","[2]; 10 μM, at 24 h",280%
same,"cellular dhCers level, time dependent","[2]; 10 μM, at 24 h",decreased to almost control level
same,"effect on dhCer species, time dependent","[2]; 10 μM, data not shown",elevated all dhCer species
same,"cellular Cers level, time dependent","[2]; 10 μM, up to 5 h",310%
same,"cellular dhCers level, time dependent","[2]; 10 μM, up to 5 h",750%
same,elevation of cellular dhCer,[2]; 24 h,~7 fold
same,endogenous Cer level,"[2]; 40 μM, 24 h",550%
same,increase of cellular dhSph,"[2]; 40 μM, 24 h",~5 fold
same,elevation of dhC16-Cer (C16-dhCer),"[2]; 24 h, results not shown",≤ 13 fold
same,C16-Cer/C16-dhCer fold ratio,[2]; MCF7 cells,50/13
same,influence on levels of cellular Cers/dhCers,[2]; MCF7 cells,significantly increased the levels of their cellular long chain homologs
same,cellular Sph level (decrease to),"[2]; at a low concentration, 24 h",~70%
same,effect on cellular dhCers,"[2]; up to 10 μM, 24 h",did not induce elevation of cellular dhCers
same,conversion to the corresponding unsaturated analog,dhCer desaturase,42%
same,concentration at which an inhibitory effect on cell growth is caused,MCF7 cells [3],higher than 10 μM
same,IC50,MCF7 cells [3],~38 µM and 38 µM
CCCCCCCCCCCCC/C=C/[C@@H](O)[C@H](CO)NC(=O)CCCCC [C6-Cer],"cellular level of the analog, time course",MCF7 cells [1],progressively increased up to 5 h followed by decrease at 24 h
same,"cellular uptake, early level",MCF7 cells [1],highest levels
same,"cellular Cers level, time dependent","[2]; 10 μM, at 24 h",350%
same,"cellular Cers level, time dependent","[2]; 10 μM, up to 5 h",500%
same,increase of C14-Cer,"[2]; 20 μM treatment, 24 h",~40 fold
same,increase of C16-Cer,"[2]; 20 μM treatment, 24 h",~20 fold
same,increase of C18-Cer,"[2]; 20 μM treatment, 24 h",~80 fold
same,increase of C24-Cer,"[2]; 20 μM treatment, 24 h",~0.2 fold
same,increase of C24:1-Cer,"[2]; 20 μM treatment, 24 h",fivefold
same,cellular S1P level,"[2]; 20 μM, 24 h",800%
same,endogenous Cer (total) level,"[2]; 20 μM, 24 h",up to 900%
same,endogenous Sph level,"[2]; 20 μM, 24 h",≤ 600%
same,concentration from which all Cer species are elevated,[2]; 24 h,≥ 5 µM
same,influence on levels of cellular Cers/dhCers,[2]; MCF7 cells,significantly increased the levels of their cellular long chain homologs
same,metabolism/conversion to cellular long chain 2′-OH homologs (2′-OHCer analogs),[2]; MCF7 cells,not converted to the cellular 2′-OHCer analogs
same,IC50,MCF7 cells [3]; listed as C6-ceramide,12 µM
same,IC50,MCF7 cells [3],~12 µM
"CCCCCCCCCCCCC/C=C/[C@@H](O)[C@H](CO)NC(=O)[C@@H](O)CCCC [LCL367, (2S,3R,2′S,4E)-2′-Hydroxy-C6-ceramide]",cellular accumulation,MCF7 cells [1],higher cellular accumulation
same,"cellular level of the analog, time course",MCF7 cells [1],elevated up to 2.5 h followed by a small decrease at 5 h and plateau to 24 h
same,"cellular level of the analog, concentration dependent",MCF7 cells [1],highest level
"CCCCCCCCCCCCCCC[C@@H](O)[C@H](CO)NC(=O)[C@H](O)CCCC [LCL467, (2S,3R,2′R)-2′-Hydroxy-C6-dihydroceramide]","cellular level of the analog, time course",MCF7 cells [1],"showed the lowest level, remaining in a plateau between 2.5-24 h"
same,endogenous Cer (total) level,"[2]; 10 μM, 24 h, concentration-dependent experiment",~150%
same,"cellular Cers level, time dependent","[2]; 10 μM, at 24 h",~140%
same,"cellular dhCers level, time dependent","[2]; 10 μM, at 24 h",remained unchanged
same,decrease of long chain dhCers,[2]; [4],10-25%
same,increase of very long chain dhCers,[2]; [4],20-30%
same,"cellular Cers level, time dependent","[2]; 10 μM, up to 5 h",did not affect
same,"cellular dhCers level, time dependent","[2]; 10 μM, up to 5 h",did not affect
same,decrease of C16-Cer,"[2]; 1-5 μM, 24 h",up to 60%
same,"cellular Sph level, concentration dependent",[2]; 24 h,~80%
same,effect on cellular dhSph,[2]; 24 h,did not affect
same,C14-dhCer level (decrease to),"[2]; 24 h, results not shown",25 % control
same,elevation of dhC16-Cer (C16-dhCer),"[2]; 24 h, results not shown",did not elevate
same,"effectiveness as inducer of cellular dhCers, Cers, dhSph and Sph",[2]; MCF7 cells,not effective
same,effect on cellular Cer,"[2]; up to 5 μM, 24 h",did not affect
same,conversion to the corresponding unsaturated analog,dhCer desaturase,up to 5%
same,effect of 20 μM treatment on cells,MCF7 cells [3]; 20 μM,total cell death
same,IC50,MCF7 cells [3]; listed as (2′R)-2′-OH—C6-dhCer,~8 µM and 8 µM
"CCCCCCCCCCCCCCC[C@@H](O)[C@H](CO)NC(=O)[C@@H](O)CCCC [LCL466, (2S,3R,2′S)-2′-Hydroxy-C6-dihydroceramide]","cellular level of the analog, time course",MCF7 cells [1],elevated up to 5 h reaching the level of C6-dhCer and remaining constant up to 24 h
same,"effect on Cer species, time dependent",[2]; 10 μM,elevated all Cer species
same,"cellular Cers level, time dependent","[2]; 10 μM, at 24 h",the same as for 5 h treatment
same,"cellular dhCers level, time dependent","[2]; 10 μM, at 24 h",the same as for 5 h treatment
same,"effect on dhCer species, time dependent","[2]; 10 μM, data not shown",elevated all dhCer species
same,"cellular Cers level, time dependent","[2]; 10 μM, up to 5 h",200%
same,"cellular dhCers level, time dependent","[2]; 10 μM, up to 5 h",200%
same,elevation of cellular dhCer,[2]; 24 h,~19 fold
same,increase of cellular dhSph,"[2]; 40 μM, 24 h",~16 fold
same,"cellular Sph level, concentration dependent",[2]; 24 h,elevation of cellular Sph
same,elevation of dhC16-Cer (C16-dhCer),"[2]; 24 h, results not shown",up to 25 fold
same,C16-Cer/C16-dhCer fold ratio,[2]; MCF7 cells,50/25
same,"effectiveness as inducer of cellular dhCers, Cers, dhSph and Sph",[2]; MCF7 cells,three time more effective than C6-dhCer
same,conversion to the corresponding unsaturated analog,dhCer desaturase,up to 12%
same,IC50,MCF7 cells [3]; listed as (2′S)-2′-OH—C6-dhCer,~12 µM and 12 µM

# From patent US20120108667A1, “HYDROXY CERAMIDES AND ANALOGS THEREOF AND THEIR USE FOR PREVENTING OR TREATING CANCER” (priority 2010, published 2012)
